Numbers after ± are expanded uncertainties.
Columns and labels:
[1] = Crystal; DTA
[2] = Molar enthalpy of transition or fusion; conditions: Crystal; DSC

Normal melting temperature [1] [°C] | Molar enthalpy of transition or fusion [2] [kcal/mol] | SMILES
132.8 ± 1 | 4.8 ± 0.311 | O=C(O)[C@@H](O)c1ccc(F)cc1Cl [(S)-2-(2-chloro-4-fluorophenyl)-2-hydroxyacetic acid]
86.8 ± 1 | 5.33 ± 0.311 | O=C(O)C(O)c1ccccc1Br (stereo not given) [2-(2-bromophenyl)-2-hydroxyacetic acid]
92.4 ± 1 | 6.12 ± 0.311 | Cc1cccc(C(O)C(=O)O)c1 (stereo not given) [2-hydroxy-2-(m-tolyl)acetic acid]
119.6 ± 1 | 7.19 ± 0.311 | O=C(O)C(O)c1cccc(Br)c1 (stereo not given) [2-(3-bromophenyl)-2-hydroxyacetic acid]
143.8 ± 1 | 6.12 ± 0.311 | Cc1ccc(C(O)C(=O)O)cc1 (stereo not given) [2-hydroxy-2-(p-tolyl)acetic acid]
97.6 ± 1 | 4.35 ± 0.311 | O=C(O)C(O)c1ccc(F)cc1Cl (stereo not given) [2-chloro-4-fluoromandelic acid]
118.1 ± 1 | 4.25 ± 0.311 | O=C(O)C(O)c1ccc(Br)cc1 (stereo not given) [2-(4-bromophenyl)-2-hydroxyacetic acid]
103.8 ± 1 | 5.14 ± 0.311 | Cc1ccccc1C(O)C(=O)O (stereo not given) [2-hydroxy-2-(o-tolyl)acetic acid]
119.4 ± 1 | 5.35 ± 0.311 | O=C(O)[C@@H](O)c1ccccc1Br [(S)-2-(2-bromophenyl)-2-hydroxyacetic acid]
109.0 ± 1 | 5.98 ± 0.311 | O=C(O)C(O)c1ccccc1I (stereo not given) [2-hydroxy-2-(2-iodophenyl)acetic acid]
107.8 ± 1 | 3.61 ± 0.287 | O=C(O)[C@@H](O)c1ccc(Cl)cc1F [(S)-2-(4-chloro-2-fluorophenyl)-2-hydroxyacetic acid]
142.2 ± 1 | 7.27 ± 0.311 | O=C(O)C(O)c1ccc(I)cc1 (stereo not given) [2-hydroxy-2-(4-iodophenyl)acetic acid]
127.6 ± 1 | 4.11 ± 0.311 | O=C(O)[C@@H](O)c1ccc(Br)cc1 [(S)-2-(4-bromophenyl)-2-hydroxyacetic acid]
109.7 ± 1 | 6.98 ± 0.311 | Cc1cccc([C@H](O)C(=O)O)c1 [(S)-2-hydroxy-2-(m-tolyl)acetic acid]
103.1 ± 1 | 5.5 ± 0.311 | O=C(O)[C@@H](O)c1cccc(Br)c1 [(S)-2-(3-bromophenyl)-2-hydroxyacetic acid]
90.5 ± 1 | 4.23 ± 0.311 | O=C(O)C(O)c1ccc(Cl)cc1F (stereo not given) [2-(4-chloro-2-fluorophenyl)-2-hydroxyacetic acid]
97.0 ± 1 | 5.88 ± 0.311 | O=C(O)C(O)c1cccc(I)c1 (stereo not given) [2-hydroxy-2-(3-iodophenyl)acetic acid]
131.5 ± 1 | 5.35 ± 0.311 | Cc1ccc([C@H](O)C(=O)O)cc1 [(S)-2-hydroxy-2-(p-tolyl)acetic acid]

SMILES | Normal melting temperature [1] [°C] | Molar enthalpy of transition or fusion [2] [kcal/mol]
O=C(O)[C@@H](O)c1ccc(Cl)cc1 [(S)-2-(4-chlorophenyl)-2-hydroxyacetic acid] | 119.6 ± 1 | 6.48 ± 0.311
O=C(O)C(O)c1ccc(Cl)cc1 (stereo not given) [2-(4-chlorophenyl)-2-hydroxyacetic acid] | 120.1 ± 1 | 3.87 ± 0.311
